Results reported in a melting point compilation (Tetko et al.; mined from patent text by program, amines drawn as free bases though some values may be those of a salt).

Structure (SMILES) | melting point [°C]
Nc1nc(Cc2ccccc2)no1 | 142 to 145
Cc1cc(C)c(Nc2nc(C)ncc2S(=O)(=O)c2ccc(-c3cccnc3)cc2)c(C)c1 | 190 to 192
COc1ccnc(CCc2nc3cc(-c4ccc(S(=O)(=O)N5CCC(C)CC5)cc4)cnc3[nH]2)c1 | 186 to 188
CC12CCC3c4ccc(C(=O)O)cc4CCC3C1CCC2C(=O)c1ccccc1 (stereo not given) | 210 to 215
Cc1ccc(S(=O)(=O)N2CC(CO)(C(=O)O)C2)cc1 | 148 to 150
COc1ccccc1N1CCN(CCn2c(=O)[nH]c3scc(C)c3c2=O)CC1 | 209 to 213
O=S(Cc1cn(C23CC4CC(CC(C4)C2)C3)nn1)c1cc(Cl)ccc1Cl (stereo not given) | 125 to 128
O=C(CNc1ccc(S(=O)(=O)O)cc1)c1ccccc1 | > 300
O=C(CCNC(=O)NOCCCl)NCC1CC1 | 105 to 106
O=C(Nc1ccc(S(=O)(=O)c2ccccn2)cc1)C(O)(C(F)(F)F)C(F)(F)F | 199 to 200
CS(=O)(=O)c1csc(C(=O)C2C(=O)N(C(N)=O)c3ccc(Cl)cc32)c1 (stereo not given) | 228 to 230
O=C(O)CCc1ccc(CCNC(=O)c2ccccc2)cc1 | 164 to 165
Cc1nc(Cc2ccc([N+](=O)[O-])cc2)sc1C | 93 to 94
CC1COc2c(N3CCC(n4ccnn4)C3)c(F)cc3c(=O)c(C(=O)O)cn1c23 (single isomer, unassigned; (-)) | 225 to 229
COc1ccc(CNc2n[nH]cc2C#N)cc1OC1CCCC1 | 159 to 160
CC(C)CC(=O)Nc1cc(-c2ccnc3c(C(=O)c4cccs4)cnn23)ccc1Cl | 172 to 175
Nc1ccc(Oc2ccc(O)cc2)cc1 | 130 to 134
CC(C)CC[C@@H]1[C@H](c2ccccc2)OC(=O)N1CCCN1CCCCC1 (racemic) | 111 to 112
NNC(=O)Cn1c(=S)sc2ccccc21 | 214 to 215
Cc1ccc(N(c2ccccc2)c2ccc(-c3ccc(N(c4ccccc4)c4ccc(C)cc4)cc3)cc2)cc1 | 163 to 164
CC(=O)SCCNC(=O)[C@H](CSC(=O)C(C)(C)C)NC(=O)C(C)C | 101 to 103
CCOc1c(O)nc(-c2ccc(Cl)c(OC)c2F)nc1C(=O)OC | 173 to 175
CN(C)CCCOc1ccc(C[C@H](NC(=O)[C@@H]2CCCN2S(=O)(=O)c2cc(Cl)sc2Cl)C(=O)O)cc1 | > 200
CCOc1ccc(C2=NNC(=O)CC2)c(OCC)c1 | 148 to 150
CC(C)OCc1nc(N)c2nccnc2n1 | 139 to 141

Structure (SMILES) | melting point [°C]
N#Cc1ccc2c(c1)c1cc(C#N)ccc1n2Cc1ccccc1 | 265 to 267
CCOC(=O)c1cnn(C)c1O | 134 to 135
COC(=O)c1ccc2cc(-c3ccc4c(c3)C(C)(C)CCC4(C)C)n(C)c2c1 | 156
NC1(C(F)F)CCCNC1=O (stereo not given) | 149
CC1(C)CC(=O)Oc2cc(O)ccc21 | 84 to 85
O=C1NC(=O)C(=Cc2ccc(OCCNc3nc4ccccc4o3)cc2)S1 | 242 to 245
CCCCc1nn(CC(=O)c2ccccc2)c(=O)n1Cc1ccc(-c2ccccc2-c2nnn[nH]2)cc1 | 89 to 92
COC(=O)C=Cc1csc2ccccc12 | 63 to 65
CCC=CCn1c(=O)sc2c(=O)n(C)c(N)nc21 | 184 to 187
COCCCNc1ccc(S(N)(=O)=O)cn1 | 129 to 132
Cn1ccnc1Sc1ccc([N+](=O)[O-])cc1 | 120 to 121
CCCc1c(OCCCOc2ccc3c(c2CCC)OC(CCC(=O)O)C=C3)ccc(C(C)=O)c1O (stereo not given) | 60 to 62
O=C(O)CCCCCCCn1c(-c2cc(I)c(O)c(I)c2)nc(-c2ccccc2)c1-c1ccccc1 | 186
CCCCCCCC(=O)Oc1ccc(-c2ccc(C#N)cc2)cc1 | 77.5 to 77.9
CC(C)(C)OC(=O)NC1CCc2cc(C(=O)O)ccc2C1 (stereo not given) | 210 to 213
CCOCc1nc2c(N)nc3ccc(O)cc3c2n1CC(C)(C)NC(=O)C1CCCCC1 | 231 to 232
C#CCS(=O)(=O)c1cc([N+](=O)[O-])ccc1Cl | 238 to 241
C=C(CO)COC(=O)NCCCCCCCCCCCCCCC | 60 to 62
COC(=O)C(CC(C)C)NC(=O)C(CC(=O)c1ccccc1)Cc1ccccc1 (stereo not given) | 81 to 83
CCN(CC)c1ccc(C2(c3ccc(N(C)C)cc3N(C)C)OC(=O)c3cc(N(C)C)ccc32)cc1 (stereo not given) | 123 to 125
Cc1ccc(C(=O)Oc2ccccc2)cc1 | 74 to 76
Cc1cc2ccccc2n1Nc1ccncc1F | 157 to 158
CCCCCCCCCCCCCCCNC(=O)OCCOCCOCCOC(=O)N(Cc1ccccn1)C(C)=O | 42 to 43
O=C1N(Cc2ccccn2)c2ccccc2C12COc1c(Cl)cc3c(c12)OCCO3 (stereo not given) | 197 to 199
CN1CCN(Cc2cnc(Nc3cc(-c4cccc(-n5ncc6cc(C(C)(C)C)cc(F)c6c5=O)c4CO)nn(C)c3=O)cn2)CC1 | 215 to 218

Structure (SMILES) | melting point [°C]
CCCN1CC=C(c2cccc3[nH]ccc23)CC1 | 105
CCOC(=O)C(=NNc1ccc(C)cc1C)C(C)=O | 106 to 108
C[C@@H]1C[C@@H]([C@H](CC2CCCCC2)NC(=O)OC(C)(C)C)OC1=O | 80 to 82
O=C(NCC(O)CO)c1cc2c(Oc3ccc(Cl)cc3)cncc2s1 (stereo not given) | 106 to 115
Cc1cccc2c1N(CC(=O)N1CC3CCC(CC3)C1)C(=O)C(NC(=O)c1cc3ccccc3[nH]1)N=C2C1CCCCC1 (racemic) | 206 to 212
OCc1ccc2cc(O)ccc2c1 | 179 to 181
COc1ccc(Cc2cccc(C(O)(C3=NCCCN3)c3ccccc3)c2)cc1 (stereo not given) | 92
C=CCCN(CCC=C)Cc1noc(-c2ncn3c2[C@@H]2CCN2C(=O)c2ccccc2-3)n1 | 80 to 87
CC1(C)C2C=CC3(C)C(C2)C(=O)CCC13O (stereo not given) | 112 to 115
CCOc1cc(NCCSCc2[nH]cnc2C)nc2ccccc12 | 152 to 154
CN1C(=O)Cc2cc(C3=NNC(=O)CC3)ccc21 | 261 to 264
CN(CCCCC(=O)OC[C@@H]1CC(c2ccc(-c3ccc(N4C[C@H](Cn5ccnn5)OC4=O)cc3F)cn2)=NO1)C(=O)OC(C)(C)C | 121
O=C(O)C(=O)NCCCCCC1CCSS1 (stereo not given) | 75 to 79
O=C(N[C@H]1CC[C@H](CCN2CCN(c3nccc4c3CCO4)CC2)CC1)c1cnc(N2CCOCC2)cn1 | 192
CO/N=C(\C(=O)N[C@@H]1C(=O)N[C@@H]1COC(=O)/C(=N\OC)c1csc(NC(=O)CCl)n1)c1csc(NC(=O)CCl)n1 (relative stereo) | 157 to 159
CC(C)Oc1ncc(OC(=O)C2(C)CC2)cc1Cl | 116 to 117
COc1cc(C(C)C)c2c(c1)S(=O)(=O)N(COC(=O)c1c(C)ccnc1C)C2=O | 132 to 134
CCCCS(=O)(=O)Nc1ccc(CCCCOCCCCCCNCC(O)c2ccc(O)c(CO)n2)cc1 (stereo not given) | 55 to 57
CS(=O)(=O)Nc1cc2occ(N(C=O)CC(=O)O)c(=O)c2cc1Oc1ccccc1 | 98 to 100
Cc1cc2c(cc1N)OC(=O)C2C (stereo not given) | 123 to 124
CCCC(=O)c1cccc(NC(=O)C=C(C)OC)c1 | 81
CC(C)(C=O)Cc1cc(C(C)(C)C)c(O)c(C(C)(C)C)c1 | 72 to 74
CN(C)c1ccc(C(=O)C(C)(C)N2CCOCC2)cc1 | 152 to 155
CCOC(=O)CCc1cc(OCC(=O)O)nn1Cc1ccc(Cl)cc1Cl | 129 to 131
COC(=O)c1ccc(-c2nc(-c3c(F)c(F)c(F)c(F)c3F)cs2)cc1 | 141 to 142

Structure (SMILES) | melting point [°C]
Cn1c2ccc(Cl)cc2c2cc(C(=O)N3CCOCC3)sc21 | 178 to 182
COc1oc(-c2ccc(NS(=O)(=O)c3sc4ccc(F)cc4c3C)c(S(C)(=O)=O)c2)nc1C | 232 to 233
CCOC(=O)CC[C@H](NC(=O)c1ccc2c(c1)CCN2)C(=O)OCC | 96 to 97
CC(C#N)(c1ccc(F)cc1)c1ccc([N+](=O)[O-])cc1Cl (stereo not given) | 133
C[C@H](NC(=O)[C@@H](Cc1ccccc1)NS(=O)(=O)Cc1ccccc1)C(=O)NC1CCc2nc(N)sc2C1 (stereo not given in full) | 122 to 125
O=C(O)c1ccc(C(=O)/C=C/c2cc(-c3cccs3)ccc2N2CCCC2)cc1 | 208 to 209
O=C(C=C(O)c1cccnc1)C1CCN(CCc2ccccc2)CC1 | 75 to 77
COc1ccc2cc([C@@H]3CCN(C[C@H](O)COc4cccc5[nH]ccc45)[C@@H](C)C3)sc2c1 | 179 to 182
O=Cc1ccc(O)c2ccsc12 | 204
COc1ccc(C(=O)C(=O)NC(C)C)s1 | 72 to 73
CCOC(=O)Nc1cc(Oc2ncccn2)c(Br)cc1F | 178
Cc1nc2c(OCCNCc3ccccc3)cccc2[nH]1 | > 250
CC(C)(C)OC(=O)NC1CCCCCC=CC2CC2(C(=O)NS(=O)(=O)C2CC2)NC(=O)C2CC(OC(=O)c3ccc(-n4cccn4)cc3)CN2C1=O (stereo not given) | 167 to 169
CC(C)(C)OC(=O)N1CCC(c2nc3cc(-c4ccc(-n5cnnn5)cc4)ccc3o2)CC1 | 207 to 211
C/C=C/C(=O)OC(COc1ccc(C(=O)c2ccccc2)c(O)c1)COc1ccc(C(=O)c2ccccc2)c(O)c1 | 99 to 103
COc1nc(C)cc(C)c1C(=O)O | 210 to 215
Cc1cn2nc(-c3ccccc3)nc2cc1N | > 250
Nc1c([N+](=O)[O-])cnn1-c1c(Cl)cc(Cl)cc1Cl | 218 to 220
COc1ccc(-c2cc(COS(C)(=O)=O)c(=O)n(CC3CCCC3)n2)cc1F | 108 to 116
O=C(O)C(NC(=O)C(F)(F)F)c1ccc(Cl)cc1 (stereo not given) | 170 to 172
Cc1sc(CO)c(C)c1Br | 85 to 90
CCOC(=O)C1=C(N)N=C(OCC)C(C(=O)OCC)C1c1cccc(C#N)c1 (stereo not given) | 159
CCCCC(C(O)c1ccc(Cl)cc1)n1cncn1 (stereo not given) | 93 to 94
NC(=O)N(O)CCNC(=O)c1ccc2ccccc2n1 | 189 to 190
O=C(c1c[nH]c(C(=O)CCl)c1)c1ccc2ccccc2c1 | 175 to 177
